From US9795678B2, “Fast-acting insulin composition comprising a substituted anionic compound and a polyanionic compound” (ADOCIA, priority 2014, dated 2017)

Experiments:
[1] = biological target: T1, hexameric structure of human insulin (Homo sapiens, UniProt P01308); experiment: Circular dichroism, CD signal of human insulin at 276 nm; type: physicochemical; conditions: rhINS 100 IU/ml; Compound 7.3 mg/mL
T1 construct: the insulin is a recombinant human insulin as described in the European pharmacopea and the American pharmacopea
Protocol: The CD signal at 276 nm is characteristic of the hexameric form of insulin (hexamer signal at about −300°, dimer signal between −200° and −250° and monomer signal below −200°). Loss of the CD signal at 276 nm is thus characteristic of a destabilization of the hexamer into dimers or monomers.

[2] = biological target: hexameric form R6 of lispro insulin (Homo sapiens, UniProt P01308, K53P/P52K); experiment: Circular dichroism, CD signal of lispro insulin at 240 nm; conditions: lispro insulin 100 IU/mL; substituted anionic compound 7.3 mg/mL; citrate 9.3 mM; EDTA 300 μM
[3] = cited from earlier work

T1 sequence (P01308 25-54 limits assumed): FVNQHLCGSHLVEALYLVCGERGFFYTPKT
T1 sequence (P01308 90-110 limits assumed): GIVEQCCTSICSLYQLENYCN
Sequence of hexameric form R6 of lispro insulin (P01308 25-54 P52K/K53P limits assumed): as the sequence (P01308 25-54 limits assumed) above, with P28K, K29P counted along it

Row | Compound | Impact on the hexameric structure of human insulin (CD signal at 276 nm) [1] | Impact on the R6 form of lispro insulin (CD signal at 240 nm) [2] | delay of action when compared with a rapid insulin analog (dissociation of hexamers into dimers and monomers) ([3]; Brange J., et al., 1999) | time after which a hypoglycemiant effect occurs ([3]; injected subcutaneously, diabetic patients)
1 | O=C(O)CC(O)(CC(=O)O)C(=O)O [citrate] | no impact | no impact | – | –
2 | O=C(O)CCC(=O)N[C@@H](Cc1ccccc1)C(=O)O [Substituted anionic compound A1, N-(3-carboxy-1-oxopropyl-)-L-phenylalanine] | no impact | – | – | –
3 | human insulin: human insulin produced by genetic engineering | – | – | up to 20 minutes | 60 min
4 | O=C(O)CN(CCN(CC(=O)O)CC(=O)O)CC(=O)O [EDTA] | very pronounced impact | completely destructures | – | –
